Assay results reported in publication PMC5218480 (PLoS ONE, 2017).

Test system: MV-4-11 cells
Assay: Gene expression microarray analysis (Affymetrix PrimeView) and GSEA
Format: cell-based, human
Design: RFU PODN (11730768_x_at) / Fold change /veh PODN (11730768_x_at) / RFU LINC00158 (11744669_a_at) / Fold change /veh LINC00158 (11744669_a_at) / RFU DUSP10 (11751237_a_at) / Fold change /veh DUSP10 (11751237_a_at) / RFU ID3 (11757404_x_at) / Fold change /veh ID3 (11757404_x_at) / RFU PLEKHG5 (11737974_s_at) / Fold change /veh PLEKHG5 (11737974_s_at) / RFU LRRC4B (11730491_at) / Fold change /veh LRRC4B (11730491_at) / RFU GIMAP4 (11747438_a_at) / Fold change /veh GIMAP4 (11747438_a_at) / RFU KRT8 (11758183_x_at) / Fold change /veh KRT8 (11758183_x_at) / RFU CNN1 (11734310_a_at) / Fold change /veh CNN1 (11734310_a_at) / RFU VPS37D (11726825_at) / Fold change /veh VPS37D (11726825_at) / RFU C10orf10 (11716522_x_at) / Fold change /veh C10orf10 (11716522_x_at) / RFU KIR2DL2 /// KIR2DL4 /// KIR2DL5A /// KIR2DL5B /// KIR2DS1 /// KIR2DS2 /// KIR2DS3 /// KIR2DS4 /// KIR3DL3 /// KIR3DL3 /// KIR3DS1 (11738374_at) / Fold change /veh KIR2DL2 /// KIR2DL4 /// KIR2DL5A /// KIR2DL5B /// KIR2DS1 /// KIR2DS2 /// KIR2DS3 /// KIR2DS4 /// KIR3DL3 /// KIR3DL3 /// KIR3DS1 (11738374_at) / RFU C1QL1 (11718748_at) / Fold change /veh C1QL1 (11718748_at) / RFU TMPRSS4 (11747572_a_at) / Fold change /veh TMPRSS4 (11747572_a_at) / RFU HAMP (11756126_x_at) / Fold change /veh HAMP (11756126_x_at) / RFU RNFT2 (11725882_a_at) / Fold change /veh RNFT2 (11725882_a_at) / RFU NR4A2 (11747474_a_at) / Fold change /veh NR4A2 (11747474_a_at) / RFU ABCC12 (11746883_a_at) / Fold change /veh ABCC12 (11746883_a_at) / RFU TMEM136 (11760407_x_at) / Fold change /veh TMEM136 (11760407_x_at) / RFU CLDN22 /// WWC2 (11732394_at) / Fold change /veh CLDN22 /// WWC2 (11732394_at) / RFU HLA-DPB1 (11760878_x_at) / Fold change /veh HLA-DPB1 (11760878_x_at) / RFU SPINT1 (11716480_a_at) / Fold change /veh SPINT1 (11716480_a_at) / RFU GAP43 (11754022_s_at) / Fold change /veh GAP43 (11754022_s_at) / RFU A4GNT (11735810_at) / Fold change /veh A4GNT (11735810_at) / RFU PRB3 (11715151_x_at) / Fold change /veh PRB3 (11715151_x_at) / RFU TUBB4B (11761932_at) / Fold change /veh TUBB4B (11761932_at) / RFU CAPN14 (11732068_a_at) / Fold change /veh CAPN14 (11732068_a_at) / RFU TMCC2 (11721928_a_at) / Fold change /veh TMCC2 (11721928_a_at) / RFU IRGQ (11745062_a_at) / Fold change /veh IRGQ (11745062_a_at) / RFU FAM174B (11720279_a_at) / Fold change /veh FAM174B (11720279_a_at) / RFU TMPRSS4 (11748680_a_at) / Fold change /veh TMPRSS4 (11748680_a_at) / RFU FAM212B (11763350_a_at) / Fold change /veh FAM212B (11763350_a_at) / RFU PLEKHG5 (11743358_a_at) / Fold change /veh PLEKHG5 (11743358_a_at) / RFU ZSCAN30 (11745921_a_at) / Fold change /veh ZSCAN30 (11745921_a_at) / RFU CMKLR1 (11741424_a_at) / Fold change /veh CMKLR1 (11741424_a_at) / RFU LOC101060620 /// MAPK8IP1 (11723275_at) / Fold change /veh LOC101060620 /// MAPK8IP1 (11723275_at) / RFU SPTSSB (11747773_x_at) / Fold change /veh SPTSSB (11747773_x_at) / RFU PRSS12 (11739890_at) / Fold change /veh PRSS12 (11739890_at) / RFU BIN1 (11741810_x_at) / Fold change /veh BIN1 (11741810_x_at) / RFU WNT11 (11732464_a_at) / Fold change /veh WNT11 (11732464_a_at) / RFU C10orf10 (11716521_a_at) / Fold change /veh C10orf10 (11716521_a_at) / RFU C5orf56 (11738089_at) / Fold change /veh C5orf56 (11738089_at) / RFU CYB561 (11721691_x_at) / Fold change /veh CYB561 (11721691_x_at) / RFU ANKRD19P (11752326_a_at) / Fold change /veh ANKRD19P (11752326_a_at) / RFU OR2T12 /// OR2T33 /// OR2T8 (11738714_s_at) / Fold change /veh OR2T12 /// OR2T33 /// OR2T8 (11738714_s_at) / RFU VCAN (11748164_a_at) / Fold change /veh VCAN (11748164_a_at) / RFU JSRP1 (11732532_at) / Fold change /veh JSRP1 (11732532_at) / RFU KRTAP10-11 (11738290_x_at) / Fold change /veh KRTAP10-11 (11738290_x_at) / RFU MYO3A (11730013_a_at) / Fold change /veh MYO3A (11730013_a_at) / RFU EBF3 (11725865_a_at) / Fold change /veh EBF3 (11725865_a_at) / RFU CAMK2N1 (11719241_x_at) / Fold change /veh CAMK2N1 (11719241_x_at) / RFU C5orf56 (11738088_a_at) / Fold change /veh C5orf56 (11738088_a_at) / RFU OLFML3 (11715873_a_at) / Fold change /veh OLFML3 (11715873_a_at) / RFU LOC100653217 /// NTM (11731650_a_at) / Fold change /veh LOC100653217 /// NTM (11731650_a_at) / RFU MAPK11 (11762145_a_at) / Fold change /veh MAPK11 (11762145_a_at) / RFU FIZ1 (11724087_x_at) / Fold change /veh FIZ1 (11724087_x_at) / RFU OASL (11726364_x_at) / Fold change /veh OASL (11726364_x_at) / RFU SOX15 (11748057_x_at) / Fold change /veh SOX15 (11748057_x_at) / RFU CD79A (11719716_a_at) / Fold change /veh CD79A (11719716_a_at) / RFU HIST1H1D (11736915_at) / Fold change /veh HIST1H1D (11736915_at) / RFU CASKIN2 (11723855_a_at) / Fold change /veh CASKIN2 (11723855_a_at) / RFU LOC730098 (11760151_x_at) / Fold change /veh LOC730098 (11760151_x_at) / RFU OR4N2 (11742367_at) / Fold change /veh OR4N2 (11742367_at) / RFU PRRT2 (11749266_a_at) / Fold change /veh PRRT2 (11749266_a_at) / RFU SNX32 (11753110_a_at) / Fold change /veh SNX32 (11753110_a_at) / RFU CDHR5 (11726645_a_at) / Fold change /veh CDHR5 (11726645_a_at) / RFU RCAN1 (11760418_a_at) / Fold change /veh RCAN1 (11760418_a_at) / RFU FAM167A (11723789_a_at) / Fold change /veh FAM167A (11723789_a_at) / RFU FAM26E (11764081_at) / Fold change /veh FAM26E (11764081_at) / RFU ISYNA1 (11749810_s_at) / Fold change /veh ISYNA1 (11749810_s_at) / RFU ACY1 (11761880_at) / Fold change /veh ACY1 (11761880_at) / RFU 11764098_at / Fold change /veh 11764098_at / RFU SAMD14 (11745864_x_at) / Fold change /veh SAMD14 (11745864_x_at) / RFU NPB (11741838_a_at) / Fold change /veh NPB (11741838_a_at) / RFU TMPRSS6 (11731388_a_at) / Fold change /veh TMPRSS6 (11731388_a_at) / RFU KRTAP10-2 (11738614_at) / Fold change /veh KRTAP10-2 (11738614_at) / RFU ARHGAP8 /// PRR5-ARHGAP8 (11727945_x_at) / Fold change /veh ARHGAP8 /// PRR5-ARHGAP8 (11727945_x_at) / RFU KRTAP5-7 /// NADSYN1 (11734609_at) / Fold change /veh KRTAP5-7 /// NADSYN1 (11734609_at) / RFU RASL12 (11751679_a_at) / Fold change /veh RASL12 (11751679_a_at) / RFU CDKN2B (11736163_a_at) / Fold change /veh CDKN2B (11736163_a_at) / RFU PRF1 (11729649_at) / Fold change /veh PRF1 (11729649_at) / RFU, ZNF638 /// ZNF638-IT1 / Fold change vs veh, ZNF638 /// ZNF638-IT1 / RFU, PANK3 / Fold change vs veh, PANK3 / RFU, SH3YL1 / Fold change vs veh, SH3YL1 / RFU, ZEB2 / Fold change vs veh, ZEB2 / RFU, NRIP1 / Fold change vs veh, NRIP1 / RFU, PTTG1IP / Fold change vs veh, PTTG1IP / RFU, CAPN2 / Fold change vs veh, CAPN2 / RFU, MED14 / Fold change vs veh, MED14 / RFU, SNORA58 / Fold change vs veh, SNORA58 / RFU, C1orf63 / Fold change vs veh, C1orf63 / RFU, LRRFIP1 / Fold change vs veh, LRRFIP1 / RFU, NDUFAF7 / Fold change vs veh, NDUFAF7 / RFU, SLC12A2 / Fold change vs veh, SLC12A2 / RFU, IBTK / Fold change vs veh, IBTK / RFU, ESF1 / Fold change vs veh, ESF1 / Fold change vs veh, TMEM50B / RFU, TAOK1 / Fold change vs veh, TAOK1 / RFU, ACBD3 / Fold change vs veh, ACBD3 / RFU, TMA16 / Fold change vs veh, TMA16 / RFU, RWDD3 / Fold change vs veh, RWDD3 / RFU, BCAT1 / Fold change vs veh, BCAT1 / RFU, EDEM3 / Fold change vs veh, EDEM3 / RFU, TMEM33 / Fold change vs veh, TMEM33 / RFU, WDR75 / Fold change vs veh, WDR75 / RFU, AHCTF1 / Fold change vs veh, AHCTF1 / RFU, TFRC / Fold change vs veh, TFRC / RFU, ZDHHC17 / Fold change vs veh, ZDHHC17 / RFU, NOM1 / Fold change vs veh, NOM1 / RFU, ARL8B / Fold change vs veh, ARL8B / RFU, ZBTB11 / Fold change vs veh, ZBTB11 / RFU, TAMM41 / Fold change vs veh, TAMM41 / RFU, KIAA1704 /// LOC100996395 / Fold change vs veh, KIAA1704 /// LOC100996395 / RFU, ING1 / Fold change vs veh, ING1 / RFU, TRMT61B / Fold change vs veh, TRMT61B / RFU, FUBP3 / Fold change vs veh, FUBP3 / RFU, TP53 / Fold change vs veh, TP53 / RFU, TNKS2 / Fold change vs veh, TNKS2 / RFU, ZFP14 / Fold change vs veh, ZFP14 / RFU, ACTR2 / Fold change vs veh, ACTR2 / RFU, PPP3R1 / Fold change vs veh, PPP3R1 / RFU, PIK3R1 / Fold change vs veh, PIK3R1 / RFU, HNRNPA1 / Fold change vs veh, HNRNPA1 / RFU, RNF170 / Fold change vs veh, RNF170 / RFU, ZNF28 / Fold change vs veh, ZNF28 / RFU, RNGTT / Fold change vs veh, RNGTT / RFU, OGT / Fold change vs veh, OGT / RFU, BRD1 / Fold change vs veh, BRD1 / RFU, MARS / Fold change vs veh, MARS / RFU, ZNF655 / Fold change vs veh, ZNF655 / RFU, FAHD1 / Fold change vs veh, FAHD1 / RFU, BDP1 / Fold change vs veh, BDP1 / RFU, LRRCC1 / Fold change vs veh, LRRCC1 / RFU, ARID1A / Fold change vs veh, ARID1A / RFU, ZNF146 / Fold change vs veh, ZNF146 / RFU, ZNF330 / Fold change vs veh, ZNF330 / RFU, GPN3 / Fold change vs veh, GPN3 / RFU, C9orf123 / Fold change vs veh, C9orf123 / RFU, N4BP2L2 / Fold change vs veh, N4BP2L2 / RFU, ARFIP1 / Fold change vs veh, ARFIP1 / RFU, FAM179B / Fold change vs veh, FAM179B / RFU, BCL10 / Fold change vs veh, BCL10 / RFU, UHRF1BP1L / Fold change vs veh, UHRF1BP1L / RFU, BET1 / Fold change vs veh, BET1 / RFU, CNOT2 / Fold change vs veh, CNOT2 / RFU, ZNF268 / Fold change vs veh, ZNF268 / Fold change vs veh, ZNF507 / RFU, DGCR2 / Fold change vs veh, DGCR2 / RFU, WDSUB1 / Fold change vs veh, WDSUB1 / Fold change vs veh, HSP90B1 /// MIR3652 / RFU, ADSS / Fold change vs veh, ADSS / RFU, GK / Fold change vs veh, GK / RFU, ZNF148 / Fold change vs veh, ZNF148 / RFU, TAF9 / Fold change vs veh, TAF9 / RFU, SLC1A5 / Fold change vs veh, SLC1A5 / RFU, SLMO2 / Fold change vs veh, SLMO2 / RFU, ABCC4 / Fold change vs veh, ABCC4 / RFU, LOC101060439 /// RAP1B / Fold change vs veh, LOC101060439 /// RAP1B / RFU, RFX7 / Fold change vs veh, RFX7 / RFU, GTPBP10 / Fold change vs veh, GTPBP10 / RFU, CNEP1R1 / Fold change vs veh, CNEP1R1 / RFU, BIVM-ERCC5 /// ERCC5 / Fold change vs veh, BIVM-ERCC5 /// ERCC5 / RFU, ILF3 / Fold change vs veh, ILF3 / RFU 11762660_at / Fold change /veh 11762660_at / RFU VCAN (11757783_s_at) / Fold change /veh VCAN (11757783_s_at) / RFU DDX43 (11728927_at) / Fold change /veh DDX43 (11728927_at) / RFU KRT8 (11758188_x_at) / Fold change /veh KRT8 (11758188_x_at) / RFU NKD1 (11759106_at) / Fold change /veh NKD1 (11759106_at) / RFU SRD5A1 (11742802_a_at) / Fold change /veh SRD5A1 (11742802_a_at) / RFU TPSAB1 /// TPSB2 (11721975_s_at) / Fold change /veh TPSAB1 /// TPSB2 (11721975_s_at) / RFU GSTM3 (11746129_a_at) / Fold change /veh GSTM3 (11746129_a_at) / RFU IL23R (11737362_x_at) / Fold change /veh IL23R (11737362_x_at) / RFU TMEM51 (11727254_a_at) / Fold change /veh TMEM51 (11727254_a_at) / RFU PIWIL2 (11732686_x_at) / Fold change /veh PIWIL2 (11732686_x_at) / RFU ORM1 (11744905_x_at) / Fold change /veh ORM1 (11744905_x_at) / RFU CCDC152 (11743942_at) / Fold change /veh CCDC152 (11743942_at) / RFU ECM1 (11717891_a_at) / Fold change /veh ECM1 (11717891_a_at) / RFU IL23R (11748794_a_at) / Fold change /veh IL23R (11748794_a_at) / RFU TNFAIP8L3 (11732012_x_at) / Fold change /veh TNFAIP8L3 (11732012_x_at) / RFU MBOAT4 (11741988_at) / Fold change /veh MBOAT4 (11741988_at) / RFU 11764193_at / Fold change /veh 11764193_at / RFU TMEM53 (11763286_at) / Fold change /veh TMEM53 (11763286_at) / RFU MAGEB2 (11727129_at) / Fold change /veh MAGEB2 (11727129_at) / RFU TMEM200A (11744735_a_at) / Fold change /veh TMEM200A (11744735_a_at) / RFU CCDC152 (11751479_a_at) / Fold change /veh CCDC152 (11751479_a_at) / RFU FAM211A (11726209_a_at) / Fold change /veh FAM211A (11726209_a_at) / RFU RGS16 (11746705_a_at) / Fold change /veh RGS16 (11746705_a_at) / RFU VCAN (11755009_s_at) / Fold change /veh VCAN (11755009_s_at) / RFU RHOB (11743442_s_at) / Fold change /veh RHOB (11743442_s_at) / RFU RGS16 (11720943_a_at) / Fold change /veh RGS16 (11720943_a_at) / RFU RGS16 (11720944_at) / Fold change /veh RGS16 (11720944_at) / RFU, VPS4B / Fold change vs veh, VPS4B / RFU, CREB1 / Fold change vs veh, CREB1 / RFU, DNAJC13 / Fold change vs veh, DNAJC13 / RFU, GNAQ / Fold change vs veh, GNAQ / RFU, CDK5R1 / Fold change vs veh, CDK5R1 / RFU, ZRANB3 / Fold change vs veh, ZRANB3 / RFU, CUL4A / Fold change vs veh, CUL4A / RFU, CCNY / Fold change vs veh, CCNY / RFU, UFL1 / Fold change vs veh, UFL1 / RFU, COG3 / Fold change vs veh, COG3 / RFU, DIAPH2 / Fold change vs veh, DIAPH2 / RFU, SKA2 / Fold change vs veh, SKA2 / RFU, AFF3 / Fold change vs veh, AFF3 / RFU, LMF1 / Fold change vs veh, LMF1 / RFU, IPO11 / Fold change vs veh, IPO11 / RFU, DFFB / Fold change vs veh, DFFB / RFU, FOXP1 / Fold change vs veh, FOXP1 / RFU, CARD8 / Fold change vs veh, CARD8 / RFU, STRN3 / Fold change vs veh, STRN3 / RFU, ADK / Fold change vs veh, ADK / RFU, RASSF2 / Fold change vs veh, RASSF2 / RFU, WIPF1 / Fold change vs veh, WIPF1 / RFU, LARP1B / Fold change vs veh, LARP1B / RFU, RASA1 / Fold change vs veh, RASA1 / RFU, RB1 / Fold change vs veh, RB1 / RFU, PPFIA1 / Fold change vs veh, PPFIA1 / RFU, MAT2A / Fold change vs veh, MAT2A / RFU, CCT5 / Fold change vs veh, CCT5 / RFU, WDR92 / Fold change vs veh, WDR92 / RFU, CUX1 / Fold change vs veh, CUX1 / RFU, TTC7A / Fold change vs veh, TTC7A / RFU, TMEM135 / Fold change vs veh, TMEM135 / RFU, DEPTOR / Fold change vs veh, DEPTOR / RFU, CPM / Fold change vs veh, CPM / RFU, DNAJB6 / Fold change vs veh, DNAJB6 / RFU, CACNA2D3 / Fold change vs veh, CACNA2D3 / RFU, DTX4 / Fold change vs veh, DTX4 / RFU, TFCP2 / Fold change vs veh, TFCP2 / RFU, GMCL1 /// GMCL1P1 / Fold change vs veh, GMCL1 /// GMCL1P1 / RFU, AEBP2 / Fold change vs veh, AEBP2 / RFU, SNHG1 /// SNORD22 /// SNORD25 /// SNORD26 /// SNORD27 /// SNORD28 /// SNORD29 /// SNORD31 / Fold change vs veh, SNHG1 /// SNORD22 /// SNORD25 /// SNORD26 /// SNORD27 /// SNORD28 /// SNORD29 /// SNORD31 / Fold change (Aza/veh), C12orf56 (ProbeSet 11735607_a_at) / Fold change (ACY-1035/veh), C12orf56 (ProbeSet 11735607_a_at) / Fold change (Aza/veh), FGFR1OP (ProbeSet 11751329_s_at) / Fold change (ACY-1035/veh), FGFR1OP (ProbeSet 11751329_s_at) / Fold change (Aza/veh), VPS36 (ProbeSet 11739960_a_at) / Fold change (ACY-1035/veh), VPS36 (ProbeSet 11739960_a_at) / RFU SYPL1 (11715823_x_at) / Fold change /veh SYPL1 (11715823_x_at) / RFU IGFBP7 (11715501_s_at) / Fold change /veh IGFBP7 (11715501_s_at) / RFU REEP3 (11722064_at) / Fold change /veh REEP3 (11722064_at) / RFU IGLL1 (11728026_x_at) / Fold change /veh IGLL1 (11728026_x_at): dose or concentration left out as unconfirmed
Conditions: MV-4-11 cells, 48 hours

Nc1ccc(-c2cccs2)cc1NC(=O)c1ccc2c(c1)cc(C1CC1)n2CCN1CCOCC1 [ACY-1035]
Fold change /veh SYPL1 (11715823_x_at): 0.54
